Data published in the NIST ThermoML archive (doi:10.1016/j.tca.2013.04.003).
Numbers after ± are expanded uncertainties.

Test: molar enthalpy of vaporization or sublimation
Conditions: Liquid, TGA

## CCn1cc[n+](C)c1.[Cl-] [1-ethyl-3-methylimidazolium chloride]
432.1 K
  molar enthalpy: 30.3 ± 0.717 kcal/mol

## CCCCCCn1cc[n+](C)c1.[Cl-] [1-hexyl-3-methylimidazolium chloride]
432.4 K
  molar enthalpy: 34.4 ± 0.717 kcal/mol
